Test results reported in PMC4255280 (Cell metabolism, 2014).

What was measured:
MC4R [1] = target: MC4R (Mus musculus, UniProt P56450); assay: Short-circuit current; type: cell-based
MC4R [2] = assay: α-MSH ISC response in human colon mucosa after antagonist pretreatment; type: cell-based; settings: BIBO 300 nM, BIIE 1 μM, HS014 100 nM, each alone, 30 min prior to α-MSH
GPR119 = assay: Short-circuit current; type: cell-based, mouse; settings: MC4R−/− mice, 10 μM apical

Chain of MC4R (Mus musculus, UniProt P56450) (P56450 whole entry): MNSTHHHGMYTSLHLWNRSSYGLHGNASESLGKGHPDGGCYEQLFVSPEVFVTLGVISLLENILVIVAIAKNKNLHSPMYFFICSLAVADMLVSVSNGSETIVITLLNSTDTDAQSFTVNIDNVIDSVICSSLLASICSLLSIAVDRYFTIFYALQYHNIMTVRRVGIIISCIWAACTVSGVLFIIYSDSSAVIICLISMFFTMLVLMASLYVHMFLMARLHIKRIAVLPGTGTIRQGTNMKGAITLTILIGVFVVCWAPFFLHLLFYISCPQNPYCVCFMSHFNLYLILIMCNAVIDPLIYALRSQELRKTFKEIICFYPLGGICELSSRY

| Structure (SMILES) | Effect of pretreatment on α-MSH (1 μM, bl) ISC response in mouse colon (MC4R [1]) | Effect of pretreatment on α-MSH (1 μM, bl) ISC response in human colon mucosa (MC4R [2]) | Response in MC4R−/− mucosae versus MC4R+/+ mucosae (GPR119) |
| --- | --- | --- | --- |
| NC(=O)NCc1ccc(CNC(=O)[C@@H](CCCN=C(N)N)NC(=O)C(c2ccccc2)c2ccccc2)cc1 [BIBO3304] | almost completely blocked | blockade |  |
| N=C(N)NCCC[C@H](NC(=O)CC1(CC(=O)N2CCN(C3c4ccccc4NC(=O)c4ccccc43)CC2)CCCC1)C(=O)NCCn1c(=O)n(-c2ccccc2)n(-c2ccccc2)c1=O (some centres unmarked) [BIIE0246] |  | not by BIIE alone |  |
| CC(C)(C)OC(=O)N1CCC(OCc2nc(-c3ccncc3)no2)CC1 [PSN632408] |  |  | not significantly different |
| NC1=N[C@H](O)[C@H]2[C@H]3O[C@]4(O)O[C@@H]([C@@H](O)[C@@]2(N1)[C@@H]4O)[C@]3(O)CO [tetrodotoxin] | not tetrodotoxin (TTX) sensitive |  |  |
